Reference: ChEMBL document CHEMBL5505975, “Design, synthesis and biological evaluation of CDC20 inhibitors for treatment of triple-negative breast cancer” (Eur J Med Chem, 2024)

Experiments:
[1] = tested on: MDA-MB-231; assay: Cell cycle arrest in human MDA-MB-231 cells assessed as S phase cells at 100 uM incubated for 24 hrs by PI staining based flow cytometric analysis (reference value: 29.9%); assay type: functional
[2] = tested on: MDA-MB-231; assay: Cell cycle arrest in human MDA-MB-231 cells assessed as S phase cells at 100 uM incubated for 48 hrs by PI staining based flow cytometric analysis (reference value: 16.0%); assay type: functional
[3] = tested on: MDA-MB-231; assay: Cell cycle arrest in human MDA-MB-231 cells assessed as S phase cells at 100 uM incubated for 48 hrs by PI staining based flow cytometric analysis (reference value: 29.9%); assay type: functional
[4] = tested on: MDA-MB-231; assay: Cell cycle arrest in human MDA-MB-231 cells assessed as G2 phase cells at 100 uM incubated for 72 hrs by PI staining based flow cytometric analysis (reference value: 18.6%); assay type: functional
[5] = tested on: MDA-MB-231; assay: Cell cycle arrest in human MDA-MB-231 cells assessed as G1 phase cells at 100 uM incubated for 48 hrs by PI staining based flow cytometric analysis (reference value: 76.7%); assay type: functional
[6] = tested on: MDA-MB-231; assay: Cell cycle arrest in human MDA-MB-231 cells assessed as S phase cells at 100 uM incubated for 72 hrs by PI staining based flow cytometric analysis (reference value: 29.9%); assay type: functional
[7] = tested on: MDA-MB-231; assay: Induction of apoptosis in human MDA-MB-231 cells assessed as necrotic cells at 100 uM incubated for 48 hrs by Annexin V-FITC/PI staining based flow cytometric analysis (reference value: 1.63%); assay type: functional
[8] = tested on: MDA-MB-231; assay: Cell cycle arrest in human MDA-MB-231 cells assessed as G2 phase cells at 100 uM incubated for 48 hrs by PI staining based flow cytometric analysis (reference value: 18.6%); assay type: functional
[9] = tested on: MDA-MB-231; assay: Cell cycle arrest in human MDA-MB-231 cells assessed as G1 phase cells at 100 uM incubated for 48 hrs by PI staining based flow cytometric analysis (reference value: 51.5%); assay type: functional
[10] = tested on: MDA-MB-231; assay: Antiproliferative activity against human MDA-MB-231 cells assessed as reduction in cell viability incubated for 96 hrs by MTT assay; details: MDA-MB-231, 96 h
[11] = tested on: MDA-MB-231; assay: Cell cycle arrest in human MDA-MB-231 cells assessed as G1 phase cells at 100 uM incubated for 72 hrs by PI staining based flow cytometric analysis (reference value: 51.5%); assay type: functional
[12] = tested on: MDA-MB-231; assay: Induction of apoptosis in human MDA-MB-231 cells assessed as viable cells at 100 uM incubated for 48 hrs by Annexin V-FITC/PI staining based flow cytometric analysis (reference value: 95.10%); assay type: functional; details: read-out: Activity
[13] = tested on: MDA-MB-231; assay: Cell cycle arrest in human MDA-MB-231 cells assessed as G2 phase cells at 100 uM incubated for 48 hrs by PI staining based flow cytometric analysis (reference value: 7.3%); assay type: functional
[14] = tested on: MDA-MB-231; assay: Induction of apoptosis in human MDA-MB-231 cells assessed as early apoptotic cells at 100 uM incubated for 48 hrs by Annexin V-FITC/PI staining based flow cytometric analysis (reference value: 2.25 %); assay type: functional
[15] = tested on: MDA-MB-231; assay: Cell cycle arrest in human MDA-MB-231 cells assessed as G1 phase cells at 100 uM incubated for 24 hrs by PI staining based flow cytometric analysis (reference value: 51.5%); assay type: functional
[16] = tested on: MCF7; assay: Antiproliferative activity against human MCF7 cells assessed as reduction in cell viability incubated for 96 hrs by MTT assay; details: MCF7, 96 h
[17] = tested on: MDA-MB-231; assay: Cell cycle arrest in human MDA-MB-231 cells assessed as G2 phase cells at 100 uM incubated for 24 hrs by PI staining based flow cytometric analysis (reference value: 18.6%); assay type: functional
[18] = Cytotoxicity against human L02 cells assessed as reduction in cell viability incubated for 96 hrs by MTT assay; assay type: toxicity, cell-based
[19] = tested on: MDA-MB-231; assay: Induction of apoptosis in human MDA-MB-231 cells assessed as late apoptotic cells at 100 uM incubated for 48 hrs by Annexin V-FITC/PI staining based flow cytometric analysis (reference value: 1.06%); assay type: functional
[20] = tested on: MDA-MB-468; assay: Antiproliferative activity against human MDA-MB-468 cells assessed as reduction in cell viability incubated for 96 hrs by MTT assay; details: MDA-MB-468, 96 h
[21] = target: Cell division cycle protein 20 homolog (Homo sapiens, UniProt Q12834); assay: Binding affinity human CDC20 assessed as dissociation constant by SPR analysis
[22] = tested on: A549; assay: Antiproliferative activity against human A549 cells assessed as reduction in cell viability incubated for 96 hrs by MTT assay; details: A549, 96 h

Sequence of Cell division cycle protein 20 homolog (Q12834 whole entry): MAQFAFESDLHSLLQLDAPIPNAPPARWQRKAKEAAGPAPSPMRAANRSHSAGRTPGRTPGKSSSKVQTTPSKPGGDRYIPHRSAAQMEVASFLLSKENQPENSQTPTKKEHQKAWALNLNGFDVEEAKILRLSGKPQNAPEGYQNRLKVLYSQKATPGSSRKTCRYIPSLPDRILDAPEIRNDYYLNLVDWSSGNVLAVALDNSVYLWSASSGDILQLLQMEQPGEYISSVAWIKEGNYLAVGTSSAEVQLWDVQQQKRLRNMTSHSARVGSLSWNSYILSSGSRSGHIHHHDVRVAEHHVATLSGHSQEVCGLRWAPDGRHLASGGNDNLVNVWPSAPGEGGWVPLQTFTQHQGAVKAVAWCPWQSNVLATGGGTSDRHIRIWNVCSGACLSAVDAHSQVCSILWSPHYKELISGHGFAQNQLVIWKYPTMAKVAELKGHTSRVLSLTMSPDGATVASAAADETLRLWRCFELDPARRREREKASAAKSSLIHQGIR

- IC50 [10]: 139 µM
- IC50 [16]: 109 µM
- IC50 [20]: 83.4 µM
- Kd [21]: 172 µM
- IC50 [22]: 114 µM
Structure (SMILES): Cc1ncc([N+](=O)[O-])n1CCOC(=O)NC(Nc1ncccn1)C(Cl)(Cl)Cl (configuration not stated)
- Activity [1]: 45.1%
- Activity [2]: 38%
- Activity [3]: 23.5%
- Activity [4]: 36.2%
- Activity [5]: 50.3%
- Activity [6]: 24.6%
- Activity [7]: 2.43%
- Activity [8]: 27.7%
- Activity [9]: 48.8%
- Activity [11]: 39.2%
- viability at 100 µM [12]: 91.2%
- Activity [13]: 11.7%
- Activity [14]: 3.22%
- Activity [15]: 28.8%
- Activity [17]: 26.1%
- IC50 at 96 h [18]: > 200 µM
- Activity [19]: 3.12%
